Like-named read-outs stand apart in the source and are kept apart here.
Assays:
[1] = test system: murine leukemia; details: 3 mg/mouse; cited from earlier work
[2] = test system: cisplatin nephrotoxicity; details: humans; cited from earlier work
[3] = test system: Lewis lung (D122) metastasis in the lungs; test: Lewis lung carcinoma metastasis, i.v. model; format: in vivo, C57/BL mice
Excerpt: The Lewis lung carcinoma (3LL), which originated spontaneously in a C57/BL/6J (H-2^b) mouse, is a malignant tumor that produces spontaneous lung metastases. The metastatic clone D122, kindly provided by Prof. Lea Eisenbach (Weizmann Institute of Science, Rehovot, Israel), was used herein for tissue culture and for in vivo experiments. The cell cultures were maintained in DMEM supplemented with 10% heat-inactivated FCS, glutamine, antibiotics, sodium pyruvate and nonessential amino acids.
To distinguish between the effect on the migration of the cells from the main tumor and the development of a tumor from a metastatic foci, the i.v. model was used. D122 cells (5×10^5) were injected i.v. to the tail of C57/B1 male mice and after 24 days mice were killed and their lungs weighed. Treatment with disulfiram was started 3 days following the injection of D122 cells. […]
To distinguish between the effect on the migration of the cells from the main tumor and the development of a tumor from a metastatic foci, the i.v. metastastis model was used as described in section (f) of materials and Methods above. D122 cells were injected i.v. to the tail of C57/B1 male mice. Three days after, disulfiram was administered to the mice per os 3 times per week, at concentrations of 13-40 μg/mouse.

[4] = test system: endothelial cells; test: Cell rounding, capillary endothelial cells; format: cell-based, bovine
Description: Capillary endothelial cells were grown during 48 hours to 40-50% confluency and disulfiram was then added to the cells for 20 hours as described in section (g) of "Materials and Methods" above. […] The abundance of apoptotic cells was dose-dependent.

[5] = test system: 3T3 fibroblasts; test: Cell rounding, 3T3 fibroblasts; format: cell-based; details: 1 μM
[6] = test system: BALB/MK keratinocytes; test: DNA synthesis (3H-thymidine incorporation) in BALB/MK keratinocytes; format: cell-based, murine; details: for IC (maximal): Mus musculus, Keratinocyte
Description: The BALB/MK epidermal keratinocyte cell line, kindly provided by Dr. S Aaronson (National Cancer Institute, Bethesda, Md., USA), was cultured (37° C., 10% CO2 humidified atmosphere) in calcium-free MEM (Beth Haemek, Israel) supplemented with 10% dialyzed FCS and murine EGF (5 ng/ml).
Bovine capillary endothelial cells (BCE) and bovine aortic BSMC were plated in 24-well plates (6000 cells per well) in 500 μl DMEM medium supplemented with 10% Colorado calf serum (CCS) (GIBCO, USA) and GPS. After 24 hours, medium was changed to starvation medium (2% CCS, 0.5% BSA, GPS) for 24 hours. ^3 H-methyl-thymidine (5 μCi/ml) was added for the last 6 hours. DNA synthesis assays were performed as described above, in triplicates. DNA synthesis assays in BALB/MK keratinocytes were performed as previously described (Marikovsky, 1995).-DNA synthesis assays were performed in triplicates.
Disulfiram was prepared in 0.1 mM stock solutions in DMSO. Control samples were incubated with the appropriate concentration of DMSO. Inhibition was calculated as percentage of DNA synthesis of control.
To determine whether disulfiram acts directly on endothelial cells rather than on accessory cells such as macrophages and mast cells that can be responsible for the development of an angiogenic response in vivo, the effect of the drug on the growth of BCE cells was examined in vitro as described in section (c) of "Materials and Methods" above. DNA synthesis in BCE cells was measured in presence of increasing concentrations of disulfiram incubated for 24 hours with the cells. […] Maximal inhibitory activity (80%) for BSMC was at 0.5-1 μM disulfiram, while maximal inhibitory activity for C6 glioma cells or BALB/MK keratinocytes was at concentrations 10 fold higher (2-3 μM) than those for endothelial cells (0.2-0.5 μM).
To examine the time course of the effect of disulfiram and whether the effect was reversible, cells were incubated with disulfiram for various periods of time (1, 2, 4 and 24 hours), then washed away and DNA synthesis was determined. One to 4 hours of exposure to disulfiram were enough to induce maximal inhibitory effect at concentrations ranging from 0.5 μM for BCE cells (FIG. 3A) to 5 μM for BALB/MK keratinocytes (FIG. 3C) and C6 glioma cells (FIG. 3D). […] BSMC were less sensitive as far as time course is concerned when incubated with 1 μM disulfiram. Following 4 hours of incubation with 1 μM disulfiram, DNA synthesis inhibition in BSMC reached only 50% (FIG. 3B). The data shown here indicate that the damage for capillary endothelial cells, following a short incubation of 1 to 2 hours, was maximal and that, at least in a time scale of 24 hours, this damage was non-reversible.

[7] = test system: kidney, liver, stomach, lungs and spleen; test: Pathological and histological examination of tissues of treated animals; format: in vivo, mice
Description: C6 rat glioma cells (10^6) were injected subcutaneously into the back of the neck of CD1 nude male mice. After 3 days, 1 ml of aqueous solutions with or without 0.1-0.5 mM disulfiram (25-120 μg) was introduced per os to the mice using a feeding needle. Mice were orally fed three times per week. Tumors were removed 30 days following C6 cells injection, weighed, fixed in buffered formalin and histological sections were prepared. Each experimental group included 8 animals, and experiments were repeated twice.
Since disulfiram inhibits angiogenesis both in vivo in mice and in vitro in C6 glioma cells, it can be assumed that tumor growth inhibition observed for disulfiram is the result of its dual action, one on the neovascularization of the tumor and one on the C6 glioma cells. […] Blood vessels examined in these tissues were also not affected.

For `CCN(CC)C(=S)SSC(=S)N(CC)CC` [disulfiram, Bis(diethylthiocarbamoyl) disulfide], the “potentiation of nitrogen mustard (HN2) cytotoxicity” value [1] is listed as “potentiate”, the “protection against cisplatin nephrotoxicity” value [2] is listed as “did not show any protection” and the “metastasis in the lungs compared with water-fed control (in words)” value ([3]; 13-40 μg, 3 times a week, 24 days, n=6, p=0.023-0.037) is listed as “significantly smaller”. For the same molecule, the “inhibition of the development of metastatic foci in the lungs” value ([3]; 13-40 μg/mouse per os 3 times per week) was 83-95%, the “decrease of metastasis to the lungs” value ([3]; 13-40 μg/mouse, 3 times a week, 24 days) was 6-19 fold and the cell rounding [4] was “quickly became rounded”. The cell rounding [5] was “did not change their shape to the rounded form”, the “maximal inhibitory concentration relative to endothelial cells, fold higher” value ([6]; BALB/MK vs endothelial cells (0.2-0.5 μM)) was 10 fold and the “persistence of inhibitory effect after short exposure” value ([6]; MK, 24 hours following short exposure) was “inhibitory effect seemed to be maintained”. The IC (maximal) ([6]; BALB/MK keratinocytes, read-out: concentration of maximal inhibitory activity (DNA synthesis)) was 2 to 3 µM, the IC (maximal) ([6]; BALB/MK, 1 to 4 hours of exposure, washed, read-out: concentration inducing maximal inhibitory effect on DNA synthesis, short exposure) was 5 µM and the “effect on blood vessels in tissues” value [7] was “not affected”. For the same molecule, the “pathological effect on tissues” value [7] was “no effect on these tissues”.

Reference: patent publication US6288110A, “Pharmaceutical compositions comprising disulfiram” (Yeda Research and Development Co Ltd., priority 1998, dated 2001)
